From patent publication US20100184653A1, “Derivates of Polyethylene Glycol Modified Thymosin Alpha 1” (Jiangsu Hansen Pharmaceutical Co., Ltd., priority 2008, published 2010)
Residues, ends and D or L forms follow the SMILES beside them. No end group written: not given here.

Legend:
[1] = in body; cited from earlier work
[2] = Pharmacokinetic test, half life after hypodermic injection; conditions: in vivo, subcutaneous
[3] = test system: T-lymphocytes (mice's spleen cells); assay: ConA-induced IFN-γ production by mouse spleen T lymphocytes, ELISA of culture supernatant; format: cell-based, ICR mice; parameters: Mean (IFN-γ, ConA-induced cytokine production): unit not given here; conditions: for Mean (IFN-γ, ConA-induced cytokine production): 24 hours
Method: (§1) With Zadaxin as a positive control, the effect of the samples on T-lymphocytes producing cytokines were tested to confirm if the samples could adjust T-lymphocyte immune activity and the extent thereof.
(§2) In the lymphocytes cultured in vitro, T cell can be activated by the stimulation of mitosis Concanavalin A and brings change of cells' behavior such as cytokine synthesis, cytokine receptor expression, cell differentiation and cell proliferation. The generation of cytokine and proliferation of the cell are response of the immune cell function and cell activation. Detection means is reliable, simple, and with good repeatability, therefore, evaluating the samples' effect to the function of T lymphocytes by detecting cytokine generation and cell proliferation has been widely applied.
(§3) Preparation of spleen cell suspension: mice's spleen was obtained under aseptic condition, which was ground with frosted glass. The spleen cell suspension was thus obtained. After red blood lysis, the spleen cell suspension was washed three times, counted (live cells being more than 95%). The concentration of spleen cell was adjusted to 5×10^6 cells/ml with 10% FBS (bovine serum) RPMI1640 culture fluid.
(§4) The concentration of mice's Spleen cells was adjusted to 5×10^6 cells/ml, and then distributed it into 24 wells plate with 1 ml/well; samples with various concentrations were added into the plate respectively with 0.5 ml/well; and then ConA (20 ug/ml) was added with 0.5 ml/well. The samples were kept at 37° C. in CO2 incubator for 24 hours, centrifuged and collected culture supernatant.
(§5) Antibody Coating: The antibody was diluted with coating buffer and then was added into 96 well ELISA plates with 50 μL each wells. The plate was left overnight at […].
(§6) Blocking: The antibody coating buffer was removed, and the plate was washed 3 times with washing solution (PBS/Tween solution). 100 μL of blocking buffer (PBS/10% FBS) was added to each wells of the plates. The plate was incubated at room temperature for 1 hour.
(§7) Standards and samples: The blocking buffer was removed from the plates, which was washed 3 times with washing solution (PBS/Tween solution) and followed by adding standards and samples with 50 μL each wells. The plate was incubated at room temperature for 2 hours.
(§8) Detection of Antibody and Enzyme: The standards and samples were removed from the plates. The plate was washed 3 times with washing solution (PBS/Tween solution). The diluted detective antibody and enzyme HRP were added into the plate with 50 μL each wells. The plate was incubated at room temperature for 1 hour.
(§9) Substrate Staining: The diluted detection antibody and enzyme HRP were removed from the plate which was then washed 3 times with washing solution (PBS/Tween solution). The substrate resolved in citricic acid/hydrogen peroxide (TMB) was added into the plate with 50 μL each wells. The plate was incubated at room temperature away from the light for 30 minutes. After being stained, stop solution 2N H2SO4 was added into the plate with 25 μL per well.
(§10) OD Detection: The plate was placed into enzyme-labeled instrument and read OD values at 450 nm (calibrated value of 570 nm).

[4] = test system: T-lymphocytes (mice's spleen cells); assay: ConA-induced IL-2 production by mouse spleen T lymphocytes, ELISA of culture supernatant; format: cell-based, ICR mice; parameters: unit not given here; conditions: 24 hours
Method: as §1, §2, §3, §4, §5, §6, §7, §8, §9, §10

Row | half-life [2] [h] | Molecule | T1/2 [1] [h] | activity of promoting the production of IFN-r by T cells ([3]; all experimental concentrations) | promoting the production of IFN-r by T cells ([3]; compared with PEG-TA1) | Mean (IFN-γ, ConA-induced cytokine production) ([3]; sample 0.001 ug/ml) | Mean (IFN-γ, ConA-induced cytokine production) ([3]; sample 0.01 ug/ml) | Mean (IFN-γ, ConA-induced cytokine production) ([3]; sample 0.1 ug/ml) | Mean (IFN-γ, ConA-induced cytokine production) ([3]; sample 1 ug/ml) | Mean (IFN-γ, ConA-induced cytokine production) ([3]; sample 10 ug/ml) | Mean (IFN-γ, ConA-induced cytokine production) ([3]; sample 100 ug/ml) | Mean (IL-2, ConA-induced cytokine production) ([4]; sample 0.001 ug/ml) | Mean (IL-2, ConA-induced cytokine production) ([4]; sample 0.01 ug/ml) | Mean (IL-2, ConA-induced cytokine production) ([4]; sample 0.1 ug/ml) | Mean (IL-2, ConA-induced cytokine production) ([4]; sample 1 ug/ml) | Mean (IL-2, ConA-induced cytokine production) ([4]; sample 10 ug/ml) | Mean (IL-2, ConA-induced cytokine production) ([4]; sample 100 ug/ml) | stimulation of the production of IFN-r by T cells ([3]; compared with Zadaxin, several experimental concentration)
1 | ~2 | CC[C@H](C)[C@H](NC(=O)[C@H](CCC(=O)O)NC(=O)[C@H](CO)NC(=O)[C@H](CO)NC(=O)[C@@H](NC(=O)[C@H](CC(=O)O)NC(=O)[C@@H](NC(=O)[C@H](C)NC(=O)[C@H](C)NC(=O)[C@H](CC(=O)O)NC(=O)[C@H](CO)NC(C)=O)C(C)C)[C@@H](C)O)C(=O)N[C@H](C(=O)N[C@H](C(=O)N[C@@H](CCCCN)C(=O)N[C@@H](CC(=O)O)C(=O)N[C@@H](CC(C)C)C(=O)N[C@@H](CCCCN)C(=O)N[C@@H](CCC(=O)O)C(=O)N[C@@H](CCCCN)C(=O)N[C@@H](CCCCN)C(=O)N[C@@H](CCC(=O)O)C(=O)N[C@H](C(=O)N[C@H](C(=O)N[C@@H](CCC(=O)O)C(=O)N[C@@H](CCC(=O)O)C(=O)N[C@@H](C)C(=O)N[C@@H](CCC(=O)O)C(=O)N[C@@H](CC(N)=O)C(=O)O)C(C)C)C(C)C)[C@@H](C)O)[C@@H](C)O [Zadaxin, thymosin alpha 1] (Ac-SDAAVDTSSEITTKDLKEKKEVVEEAEN-OH) | 2 | – | – | – | – | – | – | – | – | – | – | – | – | – | – | –
2 | – | Ac-Ser-Asp-Ala-Ala-Val-Asp-Thr-Ser-Ser-Glu-Ile-Thr-Thr-Lys-Asp-Leu-Lys-Glu-Lys-Lys-Glu-Val-Val-Glu-Glu-Ala-Glu-Asn-Gly-Gly-Cys-PEG40K (Ac-SDAAVDTSSEITTKDLKEKKEVVEEAENGG-{C(branched 40K mPEG-maleimide)}) [T-GG-C-mPEG, thymosin alpha 1 peptide derivative modified with PEG; PEG40K: branched-chain (mPEG)2-MAL] | – | showed activity | more effective than the thymosin alpha 1 modified with PEG at the N-terminal | 4703 | 4891 | 4654 | 4990 | 5102 | 5577 | 3409 | 3610 | 3530 | 3397 | 3618 | 3692 | –
3 | – | PEG-TA1: thymosin alpha 1 modified with PEG (derivative when n was 0); b135 calls it modified at the N-terminal (SDAAVDTSSEITTKDLKEKKEVVEEAEN; not fully specified (N-terminus); ends and bridges not checked; also: PEG attached, site unclear; UniProt P06454 2-29, looked up) | – | – | – | 4809 | 4603 | 4141 | 4949 | 3874 | 5467 | 3505 | 3438 | 3339 | 3214 | 3348 | 3582 | more effective
